This is an account of results in patent US7135466B2 (Kirin Beer Kabushiki Kaisha, priority 1999, dated 2006).

For the experiment, the target named is T1, c-kit (Homo sapiens, UniProt P10721).
T1 construct: MO7e (human megakaryocytic leukemia cell line) which had been arrested for 20 hr; endogenous in cells; host or cells: MO7e human megakaryocytic leukemia cell line
The experiment is described as follows: Inhibitory activity against c-kit autophosphorylation (MO7e cells, h-SCF). It counts as cell-based. The note with it: for inhibition at 1 µM: Mo7e, figure in parentheses in −( ), at 1000 nM; for IC50: MO7e cells, h-SCF stimulation, read-out: c-kit IC50. The method in brief: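 Ligand-induced c-kit tyrosine phosphorylation is measured in MO7e cells that were quiesced 20 hr and preincubated with compound for 1 hr prior to a 5 min pulse of 50 ng/ml human SCF. Phospho-c-kit is detected by anti-phosphotyrosine capture ELISA, A450.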

T1 sequence (P10721 26-976): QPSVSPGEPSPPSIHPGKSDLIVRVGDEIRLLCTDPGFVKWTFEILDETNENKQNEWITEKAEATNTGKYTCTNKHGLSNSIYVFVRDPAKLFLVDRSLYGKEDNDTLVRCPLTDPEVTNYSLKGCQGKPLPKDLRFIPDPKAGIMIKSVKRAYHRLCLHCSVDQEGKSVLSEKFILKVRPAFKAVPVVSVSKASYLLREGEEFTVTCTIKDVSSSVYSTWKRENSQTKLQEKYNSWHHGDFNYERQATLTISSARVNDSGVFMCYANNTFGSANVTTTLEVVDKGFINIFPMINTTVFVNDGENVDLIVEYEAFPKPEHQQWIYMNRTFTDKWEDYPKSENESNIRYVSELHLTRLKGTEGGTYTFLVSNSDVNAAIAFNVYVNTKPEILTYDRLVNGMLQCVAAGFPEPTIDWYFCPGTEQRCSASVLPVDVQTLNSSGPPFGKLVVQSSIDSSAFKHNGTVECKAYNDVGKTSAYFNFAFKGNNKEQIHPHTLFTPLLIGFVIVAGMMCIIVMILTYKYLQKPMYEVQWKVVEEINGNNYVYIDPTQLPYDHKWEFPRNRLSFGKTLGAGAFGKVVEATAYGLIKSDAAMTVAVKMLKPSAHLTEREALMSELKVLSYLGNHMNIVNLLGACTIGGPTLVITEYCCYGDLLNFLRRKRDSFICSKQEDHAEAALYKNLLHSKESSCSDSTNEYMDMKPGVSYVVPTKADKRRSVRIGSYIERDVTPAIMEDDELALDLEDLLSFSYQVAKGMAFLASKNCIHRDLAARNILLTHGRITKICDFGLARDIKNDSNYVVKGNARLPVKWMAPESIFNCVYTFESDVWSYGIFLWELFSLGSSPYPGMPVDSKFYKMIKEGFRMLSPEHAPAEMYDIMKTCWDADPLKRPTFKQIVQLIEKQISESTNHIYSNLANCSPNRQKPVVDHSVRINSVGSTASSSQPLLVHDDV

On to `COc1cc2nccc(Oc3ccc(NC(=S)NC(=O)c4ccc([N+](=O)[O-])cc4)c(F)c3)c2cc1OC` [Example 968, N-{4-[(6,7-Dimethoxy-4-quinolyl)oxy]-2-fluorophenyl}-N′-(4-nitrobenzoyl)thiourea], for which the inhibition at 1 µM stood at 27%. Still for that read-out and setting: then `COc1ccc(C(=O)NC(=S)Nc2ccc(Oc3ccnc4cc(OC)c(OC)cc34)cc2F)cc1` [Example 969, N-{4-[(6,7-Dimethoxy-4-quinolyl)oxy]-2-fluorophenyl}-N′-(4-methoxybenzoyl)thiourea], with 19%. As to `COc1cc2nccc(Oc3ccc(NC(=S)NC(=O)c4ccc(C)cc4)cc3F)c2cc1OC` [Example 970, N-{4-[(6,7-Dimethoxy-4-quinolyl)oxy]-3-fluorophenyl}-N′-(4-methylbenzoyl)thiourea], the IC50 amounted to 300 nM. Same read-out and setting: then `COc1cc2nccc(Oc3ccc(NC(=S)NC(=O)c4ccc(Cl)cc4)cc3F)c2cc1OC` [Example 971, N-(4-Chlorobenzoyl)-N′-{4-[(6,7-dimethoxy-4-quinolyl)oxy]-3-fluorophenyl}thiourea], with 523 nM; and `COc1cc2nccc(Oc3ccc(NC(=S)NC(=O)c4ccc(F)cc4)cc3F)c2cc1OC` [Example 972, N-{4-[(6,7-Dimethoxy-4-quinolyl)oxy]-3-fluorophenyl}-N′-(4-fluorobenzoyl)thiourea], with 532 nM. With `COc1cc2nccc(Oc3ccc(NC(=S)NC(=O)c4ccc(Br)cc4)cc3F)c2cc1OC` [Example 973, N-(4-Bromobenzoyl)-N′-{4-[(6,7-dimethoxy-4-quinolyl)oxy]-3-fluorophenyl}thiourea], the inhibition at 1 µM is 0%. On the same count and under the same terms, then `COc1cc2nccc(Oc3ccc(NC(=S)NC(=O)c4ccc(I)cc4)cc3F)c2cc1OC` [Example 974, N-{4-[(6,7-Dimethoxy-4-quinolyl)oxy]-3-fluorophenyl}-N′-(4-iodobenzoyl)thiourea], with 34%. With `COc1cc2nccc(Oc3ccc(NC(=S)NC(=O)c4ccc([N+](=O)[O-])cc4)cc3F)c2cc1OC` [Example 975, N-{4-[(6,7-Dimethoxy-4-quinolyl)oxy]-3-fluorophenyl}-N′-(4-nitrobenzoyl)thiourea], the IC50 was 290 nM.

With `COc1ccc(C(=O)NC(=S)Nc2ccc(Oc3ccnc4cc(OC)c(OC)cc34)c(F)c2)cc1` [Example 976, N-{4-[(6,7-Dimethoxy-4-quinolyl)oxy]-3-fluorophenyl}-N′-(4-methoxybenzoyl)thiourea], the IC50 was found to be 788 nM. As to `COc1cc2nccc(Oc3ccc(NC(=S)NC(=O)c4ccc(C)cc4)cc3Cl)c2cc1OC` [Example 977, N-{3-Chloro-4-[(6,7-dimethoxy-4-quinolyl)oxy]phenyl}-N′-(4-methylbenzoyl)thiourea], the IC50 was 824 nM. As for `COc1cc2nccc(Oc3ccc(NC(=S)NC(=O)c4ccc(Cl)cc4)cc3Cl)c2cc1OC` [Example 978], the inhibition at 1 µM worked out at 22%. Consider `COc1cc2nccc(Oc3ccc(NC(=S)NC(=O)c4ccc(F)cc4)cc3Cl)c2cc1OC` [Example 979, N-{3-Chloro-4-[(6,7-dimethoxy-4-quinolyl)oxy]phenyl}-N′-(4-fluorobenzoyl)thiourea], for which the inhibition at 1 µM stood at 25%. For `COc1cc2nccc(Oc3ccc(NC(=S)NC(=O)c4ccc(Br)cc4)cc3Cl)c2cc1OC` [Example 980, N-(4-Bromobenzoyl)-N′-{3-chloro-4-[(6,7-dimethoxy-4-quinolyl)oxy]phenyl}thiourea], the IC50 was determined as 811 nM. For `COc1cc2nccc(Oc3ccc(NC(=S)NC(=O)c4ccc(I)cc4)cc3Cl)c2cc1OC` [Example 981, N-{3-Chloro-4-[(6,7-dimethoxy-4-quinolyl)oxy]phenyl}-N′-(4-iodobenzoyl)thiourea], the inhibition at 1 µM turned out to be 47%.

Turning to `COc1cc2nccc(Oc3ccc(NC(=S)NC(=O)c4ccc([N+](=O)[O-])cc4)cc3Cl)c2cc1OC` [Example 982, N-{3-Chloro-4-[(6,7-dimethoxy-4-quinolyl)oxy]phenyl}-N′-(4-nitrobenzoyl)thiourea], the inhibition at 1 µM amounted to 18%. The same measure, in the same setting: then `COc1ccc(C(=O)NC(=S)Nc2ccc(Oc3ccnc4cc(OC)c(OC)cc34)c(Cl)c2)cc1` [Example 983, N-{3-Chloro-4-[(6,7-dimethoxy-4-quinolyl)oxy]phenyl}-N′-(4-methoxybenzoyl)thiourea], with 39%; and `COc1cc2ncnc(Oc3ccc(NC(=S)NC(=O)c4ccc(C)cc4)cc3)c2cc1OC` [Example 984, N-{4-[(6,7-Dimethoxy-4-quinazolinyl)oxy]phenyl}-N′-(4-methylbenzoyl)thiourea], with 30%; and `COc1cc2ncnc(Oc3ccc(NC(=S)NC(=O)c4ccc(Cl)cc4)cc3)c2cc1OC` [Example 985, N-(4-Chlorobenzoyl)-N′-{4-[(6,7-dimethoxy-4-quinazolinyl)oxy]phenyl}thiourea], with 31%. As to `COc1cc2ncnc(Oc3ccc(NC(=S)NC(=O)c4ccc(F)cc4)cc3)c2cc1OC` [Example 986, N-{4-[(6,7-Dimethoxy-4-quinazolinyl)oxy]phenyl}-N′-(4-fluorobenzoyl)thiourea], the IC50 came to 264 nM. As to `COc1cc2ncnc(Oc3ccc(NC(=S)NC(=O)c4ccc([N+](=O)[O-])cc4)cc3)c2cc1OC` [Example 987, N-{4-[(6,7-Dimethoxy-4-quinazolinyl)oxy]phenyl}-N′-(4-nitrobenzoyl)thiourea], the inhibition at 1 µM is 32%. As to `COc1ccc(C(=O)NC(=S)Nc2ccc(Oc3ncnc4cc(OC)c(OC)cc34)cc2)cc1` [Example 988, N-{4-[(6,7-Dimethoxy-4-quinazolinyl)oxy]phenyl}-N′-(4-methoxybenzoyl)thiourea], the inhibition at 1 µM worked out at 33%.

Regarding `CCOc1ccc(C(=O)NC(=S)Nc2ccc(Oc3ccnc4cc(OC)c(OC)cc34)c(F)c2)cc1` [Example 990, N-{4-[(6,7-Dimethoxy-4-quinolyl)oxy]-3-fluorophenyl}-N′-(4-ethoxybenzoyl)thiourea], the IC50 was found to be 481 nM. Regarding `CCOc1ccc(C(=O)NC(=S)Nc2ccc(Oc3ccnc4cc(OC)c(OC)cc34)c(Cl)c2)cc1` [Example 992, N-{3-Chloro-4-[(6,7-dimethoxy-4-quinolyl)oxy]phenyl}-N′-(4-ethoxybenzoyl)thiourea], the IC50 worked out at 766 nM. On to `CCc1ccc(C(=O)NC(=S)Nc2ccc(Oc3ccnc4cc(OC)c(OC)cc34)cc2F)cc1` [Example 993, N-{4-[(6,7-Dimethoxy-4-quinolyl)oxy]-2-fluorophenyl}-N′-(4-ethylbenzoyl)thiourea], for which the inhibition at 1 µM worked out at 35%.

In the case of `COc1cc2nccc(Oc3ccc(NC(=S)NC(=O)c4ccc(F)cc4F)cc3)c2cc1OC` [Example 1006, N-(2,4-Difluorobenzoyl)-N′-{4-[(6,7-dimethoxy-4-quinolyl)oxy]phenyl}thiourea], the IC50 was found to be 181 nM. Still for that read-out and setting: then `COc1cc2nccc(Oc3ccc(NC(=S)NC(=O)c4c(F)cccc4F)cc3)c2cc1OC` [Example 1007, N-(2,6-Difluorobenzoyl)-N′-{4-[(6,7-dimethoxy-4-quinolyl)oxy]phenyl}thiourea], with 616 nM. Still for that read-out and setting: then `COc1cc2nccc(Oc3ccc(NC(=S)NC(=O)c4ccc(Cl)cc4Cl)cc3)c2cc1OC` [Example 1008, N-(2,4-Dichlorobenzoyl)-N′-{4-[(6,7-dimethoxy-4-quinolyl)oxy]phenyl}thiourea], with 357 nM.

For orientation: inhibition means the change of the read-out against control, counted positive when it falls. A word on the IC50: it is the concentration that inhibits the measured activity by half.
